Data from patent US20250235434A1, “RIFABUTIN ANALOGS FOR THE TREATMENT OF DISEASE” (BIOVERSYS AG, priority 2022, published 2025).
In brackets after ≈: the same amount, converted by molar mass.

Experiments:
Type in all cases: cell-based
[1] = test system: M. smegmatis (ATCC 700084); assay: MIC against M. smegmatis (resazurin assay); details: Mycolicibacterium smegmatis, ATCC700084, Middlebrook 7H9 + ADC, 90% growth inhibition, 20 h
[2] = test system: M. tuberculosis H37Rv (ATCC 27294); assay: microbe, parasite or virus in culture; details: Mycobacterium tuberculosis, 120 h
[3] = test system: M. abscessus (ATCC 19977); assay: MIC by broth microdilution against M. abscessus; details: Mycobacteroides abscessus, ATCC19977, 20 h; ATCC 19977; Middlebrook 7H9 broth with ADC supplement; visual reading; read-out: MIC M. abscessus
[4] = test system: M. avium (ATCC 25291); assay: MIC against M. avium (resazurin assay); details: Mycobacterium avium, ATCC25291, 168 h, Middlebrook 7H9 + ADC, 90% growth inhibition, 7 days
[5] = test system: M. kansasii (ATCC 12478); assay: MIC against M. kansasii (resazurin assay); details: Mycobacterium kansasii, ATCC12478, 168 h, Middlebrook 7H9 + ADC, 90% growth inhibition, 7 days
[6] = test system: S. aureus (UAMS-1625 strain); assay: MIC by broth microdilution against S. aureus; details: Staphylococcus aureus, 20 h, read-out: MIC S. aureus
[7] = test system: A. baumannii (HUMC1 strain); assay: MIC by broth microdilution against A. baumannii; details: Acinetobacter baumannii, RPMI medium supplemented with 10% FCS, 35° C. for 20 hours, visual reading
[8] = test system: M. xenopi (ATCC 19250); assay: MIC against M. xenopi (resazurin assay); details: Mycobacterium xenopi, ATCC19250, 168 h, Middlebrook 7H9 + ADC, 90% growth inhibition, 7 days

Compound | MIC [1] [µg/mL] | MIC [2] [µg/mL] | MIC [3] [µg/mL] | MIC [4] [µg/mL] | MIC [5] [µg/mL] | MIC [6] [µg/mL] | MIC [7] [µg/mL] | MIC [8] [µg/mL]
CO[C@H]1/C=C/O[C@@]2(C)Oc3c(C)c(O)c4c(c3C2=O)C2=NC3(CCN(CC(C)C)CC3)NC2=C(NC(=O)/C(C)=C\C=C\[C@H](C)[C@H](O)[C@@H](C)[C@@H](O)[C@@H](C)[C@H](OC(=O)C[n+]2ccc(N(C)C)cc2)[C@@H]1C)C4=O [Compound 35] | 0.03 | 0.0025 | 0.5 | 0.8 | 0.003 | 0.06 | ≤ 0.002 | 0.04
CO[C@H]1/C=C/O[C@@]2(C)Oc3c(C)c(O)c4c(c3C2=O)C2=NC3(CCN(CC(C)C)CC3)NC2=C(NC(=O)/C(C)=C\C=C\[C@H](C)[C@H](O)[C@@H](C)[C@@H](O)[C@@H](C)[C@H](OC(=O)CN2CCC(n3c(=O)[nH]c5cc(Cl)ccc53)CC2)[C@@H]1C)C4=O [Compound 19] | 0.24 | 0.003 (≈ 0.00274 µM) | 0.5 (≈ 0.456 µM) | 4 | 0.015 | 4 (≈ 3.65 µM) | 0.125 (≈ 0.114 µM) | 0.03
CO[C@H]1/C=C/O[C@@]2(C)Oc3c(C)c(O)c4c(c3C2=O)C2=NC3(CCN(CC(C)C)CC3)NC2=C(NC(=O)/C(C)=C\C=C\[C@H](C)[C@H](O)[C@@H](C)[C@@H](O)[C@@H](C)[C@H](OC(=O)CNCCCN(C)C)[C@@H]1C)C4=O [Compound 12] | 0.03 | 0.003 (≈ 0.00317 µM) | 1 (≈ 1.06 µM) | 1.4 | 0.0055 | 0.03 (≈ 0.0317 µM) | ≤ 0.002 | 0.01
CO[C@H]1/C=C/O[C@@]2(C)Oc3c(C)c(O)c4c(c3C2=O)C2=NC3(CCN(CC(C)C)CC3)NC2=C(NC(=O)/C(C)=C\C=C\[C@H](C)[C@H](O)[C@@H](C)[C@@H](O)[C@@H](C)[C@H](OC(=O)CN2CCC(N(C)C)CC2)[C@@H]1C)C4=O [Compound 3] | 0.03 | 0.008 (≈ 0.00822 µM) | 1 (≈ 1.03 µM) | 1.2 | 0.01 | 0.03 (≈ 0.0308 µM) | ≤ 0.002 | 0.07
CO[C@H]1/C=C/O[C@@]2(C)Oc3c(C)c(O)c4c(c3C2=O)C2=NC3(CCN(CC(C)C)CC3)NC2=C(NC(=O)/C(C)=C\C=C\[C@H](C)[C@H](O)[C@@H](C)[C@@H](O)[C@@H](C)[C@H](OC(=O)CNCCN2CCOCC2)[C@@H]1C)C4=O [Compound 10] | 0.1 | 0.008 (≈ 0.0082 µM) | 1 (≈ 1.03 µM) | 1 | 0.015 | 0.03 (≈ 0.0308 µM) | ≤ 0.002 | 0.01
CO[C@H]1/C=C/O[C@@]2(C)Oc3c(C)c(O)c4c(c3C2=O)C2=NC3(CCN(CC(C)C)CC3)NC2=C(NC(=O)/C(C)=C\C=C\[C@H](C)[C@H](O)[C@@H](C)[C@@H](O)[C@@H](C)[C@H](OC(=O)CN2CCc3[nH]c5ccccc5c3C2)[C@@H]1C)C4=O [Compound 33] | 0.1 | 0.008 (≈ 0.00786 µM) | 0.5 (≈ 0.492 µM) | 0.3 | 0.01 | 1 (≈ 0.983 µM) | 0.125 (≈ 0.123 µM) | 0.7
CO[C@H]1/C=C/O[C@@]2(C)Oc3c(C)c(O)c4c(c3C2=O)C2=NC3(CCN(CC(C)C)CC3)NC2=C(NC(=O)/C(C)=C\C=C\[C@H](C)[C@H](O)[C@@H](C)[C@@H](O)[C@@H](C)[C@H](OC(=O)CN2CCC(n3c(=O)[nH]c5ccccc53)CC2)[C@@H]1C)C4=O [Compound 18] | 0.09 | 0.002 (≈ 0.00188 µM) | 0.5 (≈ 0.471 µM) | 1.3 | 0.01 | 0.5 (≈ 0.471 µM) | 0.03 (≈ 0.0282 µM) | 0.01
CO[C@H]1/C=C/O[C@@]2(C)Oc3c(C)c(O)c4c(c3C2=O)C2=NC3(CCN(CC(C)C)CC3)NC2=C(NC(=O)/C(C)=C\C=C\[C@H](C)[C@H](O)[C@@H](C)[C@@H](O)[C@@H](C)[C@H](OC(=O)CN2CCCN(c3ccc(F)cc3)CC2)[C@@H]1C)C4=O [Compound 34] | 0.11 | 0.008 (≈ 0.0077 µM) | 0.5 (≈ 0.481 µM) | 0.5 | 0.009 | 2 (≈ 1.92 µM) | 0.125 (≈ 0.12 µM) | 0.01
